{"source": "patent US20240092825A1", "about": "“CERTAIN CHEMICAL ENTITIES, COMPOSITIONS, AND METHODS” (priority 2021, published 2024)", "key": {"[1]": {"assay": "Accelerated stability test of Crystalline Form I, storage at 40° C./75% RH (open)", "assay_type": "physicochemical", "settings": "for Appearance / DSC / Purity / XRPD: 40° C./75% RH (open)", "description": "(§1) X-ray powder diffraction (XRPD) patterns were obtained on a Bruker D8 Advance. A CuK source (=1.54179 angstrom) operating minimally at 40 kV and 40 mA scans each sample between 3 and 40 degrees 2-theta. The scanning rate is 10 degrees 2-theta per minute and the sample rotation speed is 15 revolutions per minute.\n(§2) Differential scanning calorimetry analysis was carried out on a TA Instrument DSC unit (TA Q2000). Samples were heated in non-hermetic aluminum pans from ambient to 260° C. at 10° C./min.\n(§3) Crystalline Form I was not changed after storage at 40° C./75% RH for 6 months, or storage at 25° C./60% RH for 36 months."}, "[2]": {"assay": "Long-term stability test of Crystalline Form I, storage at 25° C./60% RH (open)", "assay_type": "physicochemical", "settings": "for Appearance / DSC / Purity / XRPD: 25° C./60% RH (open)", "description": "as §1, §2, §3"}}, "note": "Where a name gives a salt, the structure may show the parent alone.", "data": [{"smiles": "C[C@]12CC[C@H](OC(=O)N3CCNCC3)C[C@H]1CC[C@@H]1[C@@H]2CC[C@]2(C)[C@@H](c3ccc(=O)oc3)CC[C@]12O", "note": "[Crystalline Form I, (3S,5R,8R,9S,10S,13R,14S,17R)-14-hydroxy-10,13-dimethyl-17-(2-oxo-2H-pyran-5-yl)hexadecahydro-1H-cyclopenta[a]phenanthren-3-yl piperazine-1-carboxylate maleate]", "values": [{"measurement": "Appearance", "setting": "[1]; 0 month", "result": "White powder"}, {"measurement": "DSC", "setting": "[1]; 0 month", "result": 233.84, "unit": "° ° C."}, {"measurement": "Purity", "setting": "[1]; 0 month", "result": 99.86, "unit": "%"}, {"measurement": "XRPD", "setting": "[1]; 0 month", "result": "Form I"}, {"measurement": "Appearance", "setting": "[1]; 6 months", "result": "White powder"}, {"measurement": "DSC", "setting": "[1]; 6 months", "result": 234.28, "unit": "° ° C."}, {"measurement": "Purity", "setting": "[1]; 6 months", "result": 99.91, "unit": "%"}, {"measurement": "XRPD", "setting": "[1]; 6 months", "result": "Form I"}, {"measurement": "Change of crystalline form after storage", "setting": "[1]; storage at 40° C./75% RH for 6 months", "result": "not changed"}, {"measurement": "Appearance", "setting": "[2]; 0 month", "result": "White powder"}, {"measurement": "DSC", "setting": "[2]; 0 month", "result": 233.84, "unit": "° ° C."}, {"measurement": "Purity", "setting": "[2]; 0 month", "result": 99.86, "unit": "%"}, {"measurement": "XRPD", "setting": "[2]; 0 month", "result": "Form I"}, {"measurement": "Appearance", "setting": "[2]; 12 months", "result": "White powder"}, {"measurement": "DSC", "setting": "[2]; 12 months", "result": 234.41, "unit": "° ° C."}, {"measurement": "Purity", "setting": "[2]; 12 months", "result": 99.87, "unit": "%"}, {"measurement": "XRPD", "setting": "[2]; 12 months", "result": "Form I"}, {"measurement": "Appearance", "setting": "[2]; 24 months", "result": "White powder"}, {"measurement": "DSC", "setting": "[2]; 24 months", "result": 232.9, "unit": "° ° C."}, {"measurement": "Purity", "setting": "[2]; 24 months", "result": 99.91, "unit": "%"}, {"measurement": "XRPD", "setting": "[2]; 24 months", "result": "Form I"}, {"measurement": "Appearance", "setting": "[2]; 36 months", "result": "White powder"}, {"measurement": "DSC", "setting": "[2]; 36 months", "result": 233.6, "unit": "° ° C."}, {"measurement": "Purity", "setting": "[2]; 36 months", "result": 100.00, "unit": "%"}, {"measurement": "XRPD", "setting": "[2]; 36 months", "result": "Form I"}, {"measurement": "Change of crystalline form after storage", "setting": "[2]; storage at 25° C./60% RH for 36 months", "result": "not changed"}]}]}
